Molecular target: T1, LPAR1 (Homo sapiens, UniProt Q92633)
T1 construct: host or cells: U2OS
Assay: LPAR1 FLIPR Assay
Format: cell-based
Conditions: U2OS cells stably expressing LPAR1, LPA (EC80), Calcium 6 FLIPR dye; for Emax: read-out: Maximum Inhibition
Protocol: U2OS cells stably expressing LPAR1 (Life Technologies #K1519A) were plated at 12000 cells/well in growth medium (McCoy's 5A medium(Life Technologies 16600-082)) with 10% dFBS (Life Technologies 26400-036), 0.1 mM non-essential amino acids, 25 mM HEPES, 1 mM sodium pyruvate, 1% penicillin/streptomycin, 50 μg/mL hygromycin, and 100 μg/mL Geneticin® in black-walled, clear-bottom 384-well plates (Corning #3683) and incubated in humidified 5% CO2 at 37° C. overnight. On the day of the assay, medium was removed and 30 μL of 5% Calcium 6 FLIPR dye in assay buffer-HBSS (Life Technologies #14025) containing 20 mM HEPES (Life Technologies #15630-080) was added to the cells. Cells were incubated at 37° C. in the dark for 2 hours. Compounds were 3-fold serial diluted from 10 mM for 11-points using dimethyl sulfoxide. 1 μL of compound in DMSO was diluted in 82.3 μL assay buffer immediately before the assay. Using a FLIPR® TETRA® system, 15 μL of the (4×) compound solutions were first added to the cells, then 15 μL of LPA (EC80) diluted in of assay buffer supplemented with 0.1% BSA was added 3 minutes later to activate the receptor. Changes in fluorescence were measured at wavelengths of 515-575 nm over the course of the experimental run. IC50 values were calculated from curve fits of the ratio data using a four-parameter logistic Hill equation (Assay Explorer 3.3 Client).

T1 sequence (Q92633 whole entry): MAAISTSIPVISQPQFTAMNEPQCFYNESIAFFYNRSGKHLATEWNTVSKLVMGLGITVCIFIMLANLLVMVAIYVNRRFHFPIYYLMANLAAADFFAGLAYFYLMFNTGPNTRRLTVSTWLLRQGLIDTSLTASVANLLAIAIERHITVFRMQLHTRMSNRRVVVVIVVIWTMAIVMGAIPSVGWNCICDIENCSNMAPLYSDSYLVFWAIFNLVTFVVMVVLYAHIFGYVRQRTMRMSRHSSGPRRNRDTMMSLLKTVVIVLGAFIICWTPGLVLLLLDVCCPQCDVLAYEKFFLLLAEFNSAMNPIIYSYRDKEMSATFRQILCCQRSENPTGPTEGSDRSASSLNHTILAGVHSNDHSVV

Compound	IC50	Maximum Inhibition	Emax
5-[(3-methoxy-4-methylbenzoyl)(3-phenylpropyl)amino]pentanoic Acid [Example 28]	398 nM	72%	
O=C(O)CCCCN(CCCc1ccccc1)C(=O)c1cc(Cl)cc(Cl)c1 [Example 12, 5-[(3,5-dichlorobenzoyl)(3-phenylpropyl)amino]pentanoic Acid]	3240 nM		55%
COc1c(F)cc(C(=O)N(CCCCC(=O)O)CCCc2ccccc2)cc1F [Example 13, 5-[(3,5-difluoro-4-methoxybenzoyl)(3-phenylpropyl)amino]pentanoic Acid]	6170 nM		48%
CCOc1cc(C(=O)N(CCCCC(=O)O)CCCc2ccccc2)ccn1 [Example 14, 5-[(2-ethoxypyridine-4-carbonyl)(3-phenylpropyl)amino]pentanoic Acid]	942 nM		41%
COc1cc(OC)cc(C(=O)N(CCCc2ccccc2)CCOCC(=O)O)c1 [Example 15, {2-[(3,5-dimethoxybenzoyl)(3-phenylpropyl)amino]ethoxy}acetic Acid]	290 nM		59%
Cc1c(Cl)cc(C(=O)N(CCCCC(=O)O)CCCc2ccccc2)cc1Cl [Example 16, 5-[(3,5-dichloro-4-methylbenzoyl)(3-phenylpropyl)amino]pentanoic Acid]	985 nM		70%
CCOc1cc(C(=O)N(CCCCC(=O)O)CCCc2ccccc2)cc(OCC)c1OCC [Example 21, 5-[(3-phenylpropyl)(3,4,5-triethoxybenzoyl)amino]pentanoic Acid]	224 nM		82%
O=C(O)CCCCN(CCCc1ccccc1)C(=O)c1ccc2c(c1)OCCCO2 [Example 23, 5-[(3,4-dihydro-2H-1,5-benzodioxepine-7-carbonyl)(3-phenylpropyl)amino]pentanoic Acid]	12600 nM		53%
COc1cc(C(=O)N(CCCCC(=O)O)CCCc2ccccc2)cc2ccoc12 [Example 24, 5-[(7-methoxy-1-benzofuran-5-carbonyl)(3-phenylpropyl)amino]pentanoic Acid]	481 nM		58%
O=C(O)CCCCN(CCCc1ccccc1)C(=O)C1(c2ccc(OC(F)(F)F)cc2)CC1 [Example 25, 5-[(3-phenylpropyl){1-[4-(trifluoromethoxy)phenyl]cyclopropane-1-carbonyl}amino]pentanoic Acid]	29300 nM		48%
O=C(O)CCCCN(CCCc1ccccc1)C(=O)c1cccc(OC(F)(F)F)c1 [Example 26, 5-{(3-phenylpropyl)[3-(trifluoromethoxy)benzoyl]amino}pentanoic Acid]	> 30000 nM		50%
O=C(O)CCCCN(CCCc1ccccc1)C(=O)C1(c2ccc3c(c2)OCO3)CC1 [Example 27, 5-{[1-(2H-1,3-benzodioxol-5-yl)cyclopropane-1-carbonyl](3-phenylpropyl)amino}pentanoic Acid]	1060 nM		65%
COc1cc(OC(F)(F)F)cc(C(=O)N(CCCCC(=O)O)CCCc2ccccc2)c1 [Example 29, 5-{[3-methoxy-5-(trifluoromethoxy)benzoyl](3-phenylpropyl)amino}pentanoic Acid]	309 nM		79%
COc1cc(C(=O)N(CCCCC(=O)O)CCCc2ccc(Cl)cc2)cc(OC)c1C [Example 36, 5-{[3-(4-chlorophenyl)propyl](3,5-dimethoxy-4-methylbenzoyl)amino}pentanoic Acid]	600 nM		83%
COc1cc(C(=O)N(CCCCC(=O)O)CCCc2cccc(C(F)(F)F)c2)cc(OC)c1C [Example 40, 5-[(3,5-dimethoxy-4-methylbenzoyl){3-[3-(trifluoromethyl)phenyl]propyl}amino]pentanoic Acid]	29300 nM		45%
COc1cc(C(=O)N(CCCCC(=O)O)CCCc2ccc(C)cc2)cc(OC)c1C [Example 42, 5-{(3,5-dimethoxy-4-methylbenzoyl)[3-(4-methylphenyl)propyl]amino}pentanoic Acid]	236 nM		90%
COc1ccc(CCCN(CCCCC(=O)O)C(=O)c2cc(OC)c(C)c(OC)c2)cc1 [Example 43, 5-{(3,5-dimethoxy-4-methylbenzoyl)[3-(4-methoxyphenyl)propyl]amino}pentanoic Acid]	23300 nM		55%

Compound	IC50	Maximum Inhibition	Emax
COc1cc(C(=O)N(CCCc2ccccc2)CC(=O)N[C@@H](Cc2ccccc2)C(=O)O)cc(OC)c1C [Example 46, N-(3,5-dimethoxy-4-methylbenzoyl)-N-(3-phenylpropyl)glycylphenylalanine]	128 nM		66%
COc1cc(C(=O)N(CCCCC(=O)O)CCCc2ccc(Cl)cc2Cl)cc(OC)c1C [Example 49, 5-{[3-(2,4-dichlorophenyl)propyl](3,5-dimethoxy-4-methylbenzoyl)amino}pentanoic Acid]	24300 nM		58%
COc1cc(C(=O)N(CCCc2ccccc2)CC(=O)NCC(=O)O)cc(OC)c1C [Example 51, N-(3,5-dimethoxy-4-methylbenzoyl)-N-(3-phenylpropyl)glycylglycine]	238 nM		62%
COc1cc(C(=O)N(CCCc2ccccc2)CC[S+]([O-])CC(=O)O)cc(OC)c1C (centres unmarked) [Example 53, {2-[(3,5-dimethoxy-4-methylbenzoyl)(3-phenylpropyl)amino]ethanesulfinyl}acetic Acid]	239 nM		63%
O=C(O)CCCCN(CCCc1ccccc1)C(=O)C1(c2ccncc2)CC1 [Example 64, 5-{(3-phenylpropyl)[1-(pyridin-4-yl)cyclopropane-1-carbonyl]amino}pentanoic Acid]	1230 nM		54%
COc1ccc2c(C(=O)N(CCCCC(=O)O)CCCc3ccccc3)c[nH]c2c1 [Example 65, 5-[(6-methoxy-1H-indole-3-carbonyl)(3-phenylpropyl)amino]pentanoic Acid]	5020 nM		49%
COc1ccc([C@@H](OC)C(=O)N(CCCCC(=O)O)CCCc2ccccc2)cc1 [Example 66, 5-{[(2R)-2-methoxy-2-(4-methoxyphenyl)acetyl](3-phenylpropyl)amino}pentanoic Acid]	312 nM		71%
COc1cc(C(=O)N(CCCCP(=O)(O)O)CCCc2ccccc2)cc(OC)c1C [Example 71, {4-[(3,5-dimethoxy-4-methylbenzoyl)(3-phenylpropyl)amino]butyl}phosphonic Acid]	12 nM		91%
COc1cc(C(=O)N(CCCc2ccccc2)CCCC(C)P(=O)(O)O)cc(OC)c1C (centres unmarked) [Example 72, {5-[(3,5-dimethoxy-4-methylbenzoyl)(3-phenylpropyl)amino]pentan-2-yl}phosphonic Acid]	26 nM		99%
COc1cc(C(=O)N(CCCCC(=O)O)CCCc2ccccc2)cc(OC)c1OCCO [Example 88, 5-{[4-(2-hydroxyethoxy)-3,5-dimethoxybenzoyl](3-phenylpropyl)amino}pentanoic Acid]	293 nM		91%
COc1cc(C(=O)N(CCCc2ccccc2)CCSCC(=O)O)cc(OC)c1F [Example 100, ({2-[(4-fluoro-3,5-dimethoxybenzoyl)(3-phenylpropyl)amino]ethyl}sulfanyl)acetic Acid]	> 30000 nM		60%
COc1cc(OC)cc(C(=O)N(CCCc2ccccc2)CCSCC(=O)O)c1 [Example 101, ({2-[(3,5-dimethoxybenzoyl)(3-phenylpropyl)amino]ethyl}sulfanyl)acetic Acid]	6950 nM		59%
COc1ccc(C2(C(=O)N(CCCCC(=O)O)CCCc3ccccc3)CCCC2)cc1 [Example 106, 5-{[1-(4-methoxyphenyl)cyclopentane-1-carbonyl](3-phenylpropyl)amino}pentanoic Acid]	766 nM		55%
COc1cc(C(=O)N(CCCc2ccc(F)cc2F)CCSCC(=O)O)cc(OC)c1C [Example 114, [(2-{[3-(2,4-difluorophenyl)propyl](3,5-dimethoxy-4-methylbenzoyl)amino}ethyl)sulfanyl]acetic Acid]	671 nM		76%
COc1cc(C(=O)N(CCCc2ccc(F)cc2)CCSCC(=O)O)cc(OC)c1C [Example 118, [(2-{(3,5-dimethoxy-4-methylbenzoyl)[3-(4-fluorophenyl)propyl]amino}ethyl)sulfanyl]acetic Acid]	247 nM		78%
COc1cc(C(=O)N(C/C=C/CC(=O)O)CCCc2ccccc2)cc(OC)c1C [Example 121, (3E)-5-[(3,5-dimethoxy-4-methylbenzoyl)(3-phenylpropyl)amino]pent-3-enoic Acid]	503 nM		86%
COc1cc(C(=O)N(CCCCC(=O)NS(=O)(=O)c2ccc(F)cc2)CCCc2ccccc2)cc(OC)c1C [Example 140, N-{5-[(4-fluorobenzene-1-sulfonyl)amino]-5-oxopentyl}-3,5-dimethoxy-4-methyl-N-(3-phenylpropyl)benzamide]	143 nM		89%

— US20190119200A1, “TERTIARY AMIDES AND METHOD OF USE” (AbbVie Inc., priority 2016, published 2019)
